Experiment [1] deals with 11-beta-hydroxysteroid dehydrogenase 1 (Homo sapiens, UniProt P28845). Put plainly: Inhibition of human 11beta-HSD1 expressed in HEK293 cells after 2 hrs by scintillation proximity assay. Format: cell-based. Background: SPA uses beads or plates that emit light when radiolabelled molecules are held near them.
The target in experiment [2] is T1, 11-beta-hydroxysteroid dehydrogenase type 2 (Homo sapiens) (UniProt P80365).
T1 sequence (whole entry): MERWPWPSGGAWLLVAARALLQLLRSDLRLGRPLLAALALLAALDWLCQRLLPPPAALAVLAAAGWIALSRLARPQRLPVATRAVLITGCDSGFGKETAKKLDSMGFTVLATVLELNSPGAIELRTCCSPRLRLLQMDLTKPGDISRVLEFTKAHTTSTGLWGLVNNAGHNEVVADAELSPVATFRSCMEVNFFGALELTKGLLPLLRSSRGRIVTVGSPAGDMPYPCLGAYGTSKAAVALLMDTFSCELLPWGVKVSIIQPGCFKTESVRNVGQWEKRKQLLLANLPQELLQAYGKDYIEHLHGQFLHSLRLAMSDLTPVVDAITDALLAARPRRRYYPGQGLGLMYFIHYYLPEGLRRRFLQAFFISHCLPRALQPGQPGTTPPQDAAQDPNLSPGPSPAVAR
As to the kind of experiment: Inhibition of human 11beta-HSD2 at 10 uM by scintillation proximity assay.

The target of experiment [3] is 11-beta-hydroxysteroid dehydrogenase 1 (Mus musculus, UniProt P50172). Put plainly: Inhibition of mouse 11beta-HSD1 expressed in CHO cells after 4 hrs by scintillation proximity assay. In kind it is cell-based.
Experiment [4] has as its system Mus musculus. Put plainly: Inhibition of HSD1 in C57BL/6 mouse liver at 10 mg/kg, ip. In kind it is functional. As to conditions: C57BL/6, Liver, route intraperitoneal.
In experiment [5] the test system is Mus musculus. Put plainly: Inhibition of HSD1 in C57BL/6 mouse adipose tissue at 10 mg/kg, ip. The settings on record: C57BL/6, Adipose tissue, route intraperitoneal. In kind it is functional.
The test system of experiment [6] is Mus musculus. As to the kind of experiment: Inhibition of HSD1 in C57BL/6 mouse brain at 10 mg/kg, ip. The settings on record: C57BL/6, Brain, route intraperitoneal. In kind it is functional.
For experiment [7], the system named is Mus musculus. Put plainly: Inhibition of HSD1 in C57BL/6 mouse kidney at 10 mg/kg, ip. In kind it is functional. As to conditions: C57BL/6, Kidney, route intraperitoneal.

One may read the IC50 as the point on the concentration scale where inhibition reaches its midpoint. As usually defined, the inhibition is the drop in the measured response relative to a control, in per cent. As usually defined, the inhibition in vivo is the drop in the measured response relative to a control, in per cent.

11-beta-hydroxysteroid dehydrogenase 1 (Homo sapiens, UniProt P28845), sequence (P28845 whole entry): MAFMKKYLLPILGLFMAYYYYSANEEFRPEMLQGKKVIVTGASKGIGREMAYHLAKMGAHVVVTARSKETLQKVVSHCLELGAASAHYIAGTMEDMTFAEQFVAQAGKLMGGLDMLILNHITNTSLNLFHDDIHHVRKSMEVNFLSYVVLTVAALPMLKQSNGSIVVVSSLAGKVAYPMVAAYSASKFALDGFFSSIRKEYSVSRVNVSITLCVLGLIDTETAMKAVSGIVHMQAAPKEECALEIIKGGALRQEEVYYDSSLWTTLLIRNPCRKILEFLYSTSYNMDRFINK
11-beta-hydroxysteroid dehydrogenase 1 (Mus musculus, UniProt P50172), sequence (P50172 whole entry): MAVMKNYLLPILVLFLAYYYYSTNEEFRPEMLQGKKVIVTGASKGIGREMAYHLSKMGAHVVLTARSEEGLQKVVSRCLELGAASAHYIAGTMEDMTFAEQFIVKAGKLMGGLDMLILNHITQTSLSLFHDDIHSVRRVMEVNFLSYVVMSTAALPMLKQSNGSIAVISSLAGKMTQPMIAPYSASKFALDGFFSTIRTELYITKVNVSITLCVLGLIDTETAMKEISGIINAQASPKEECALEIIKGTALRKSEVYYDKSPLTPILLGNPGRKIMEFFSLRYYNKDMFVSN

With `CCN1CCN(C(=O)C2CC2)CC1`, in experiment [1], the IC50 is greater than 100 µM. Further, the inhibition in experiment [2] was determined as 0%.
For `Cc1ccc(C23CC4CC(CC(C(=O)N5CCN(Cc6ccncc6)CC5)(C4)C2)C3)cc1` the same measures were 8.1 µM and 0%.
`Cc1ccc(C23CC4CC(CC(C(=O)N5CCN(CCc6ccccc6)CC5)(C4)C2)C3)cc1`: in experiment [1], 1.9 µM corresponded to half-maximal inhibition (IC50). The inhibition in experiment [2] was determined as 53%.
Molecule `O=C(c1ccccc1)N1CCN(C(=O)C23CC4CC(CC(C4)C2)C3)CC1` gave a half-inhibitory concentration (IC50) in experiment [1] greater than 100 µM. Besides, in experiment [2], the inhibition was 20%.
In experiment [1], `CCN1CCN(C(=O)Cc2ccccc2)CC1` gave an IC50 of 7.2 µM. Also, in experiment [2], the inhibition amounted to 11%.
The molecule `Cc1ccc(C23CC4CC(CC(C(=O)N5CCN(C(=O)c6ccccc6)CC5)(C4)C2)C3)cc1` registered a 50% inhibitory concentration (IC50) in experiment [1] of 36 µM. The inhibition in experiment [2] was found to be 0%.
Turning to `CCN1CCN(C(=O)C23CC4CC(CC(Cc5ccccc5)(C4)C2)C3)CC1`, 1 µM corresponded to half-maximal inhibition in experiment [1] (IC50). In experiment [2], the inhibition came out at 0%.
`Cc1ccc(C23CC4CC(CC(C(=O)N5CCN(S(=O)(=O)Cc6ccccc6)CC5)(C4)C2)C3)cc1` registered an IC50 in experiment [1] of 7.7 µM. Also, the inhibition in experiment [2] is 26%.
In experiment [1], `CCN1CCN(C(=O)C2(c3ccc(F)cc3)CCCC2)CC1` registered an IC50 of 12 µM. This molecule also gave an inhibition in experiment [2] of 0%.
`O=C(N1CCC2CCCCC2C1)C12CC3CC(CC(C3)C1)C2` (stereo not given): the values for the IC50 in experiment [1] and in experiment [3] were 0.846 µM and 0.23 µM, respectively. In experiment [2], this molecule had an inhibition of 0%.
On to `O=C(N1CCCC1)C12CC3CC(CC(C3)C1)C2`, for which half-maximal inhibition in experiment [1] (IC50) was put at 0.498 µM. The molecule also displayed an inhibition in experiment [2] of 37%.
Turning to `Cc1ccc(C23CC4CC(CC(C(=O)N5CCN(C(C#N)C(C)C)CC5)(C4)C2)C3)cc1` (stereo not given), half-maximal inhibition in experiment [1] (IC50) required 10 µM. This molecule came in with an inhibition in experiment [2] of 56%.
Turning to `O=C(N1CCCc2ccccc21)C12CC3CC(CC(C3)C1)C2`, the 50% inhibitory concentration (IC50) in experiment [1] was determined as 1.86 µM; in experiment [3] it was 0.481 µM. In experiment [2], this molecule had an inhibition of 0%.
As to `Cc1ccc(C23CC4CC(CC(C(=O)N5CCN(CCO)CC5)(C4)C2)C3)cc1`, the 50% inhibitory concentration (IC50) was 0.498 µM in experiment [1] and 0.043 µM in experiment [3]. This molecule also showed an inhibition in experiment [2] of 40%.
For the molecule `O=C(C1C2CC3CC(C2)CC1C3)N1CCCCC1` (stereo not given), in experiment [1], the concentration for half-maximal inhibition (IC50) is 0.2 µM. The inhibition in experiment [2] was determined as 39%.
In turn, `O=C(N1CCN(Cc2ccncc2)CC1)C12CC3CC(CC(C3)C1)C2` gave an IC50 in experiment [1] of 7.2 µM. This molecule also displayed an inhibition in experiment [2] of 0%.
In experiment [1], `CCN1CCN(C(=O)C2CC3CCC2C3)CC1` (stereo not given) returned a concentration for half-maximal inhibition (IC50) of 44 µM. In experiment [2], this molecule showed an inhibition of 0%.
In the case of `O=C(N1CCCCC1)C12CC3CC(CC(C3)C1)C2`, the IC50 in experiment [1] was 0.193 µM; in experiment [3], 0.134 µM. Moreover, the inhibition in experiment [2] stood at 0%.
`O=C(N1CCN(S(=O)(=O)Cc2ccccc2)CC1)C12CC3CC(CC(C3)C1)C2` gave an IC50 in experiment [1] of 13 µM. Besides, the inhibition in experiment [2] was 39%.
As to `CCN1CCN(C(=O)C23CC4CC(CC(C4)C2)C3)CC1`, the IC50 in experiment [1] turned out to be 0.756 µM; in experiment [3], 0.3 µM. In experiment [2], this molecule returned an inhibition of 11%.
Consider `O=C(N1CCN(Cc2ccccc2)CC1)C12CC3CC(CC(C3)C1)C2`, for which it took 7.2 µM to reach half-maximal inhibition in experiment [1] (IC50). In experiment [2], this molecule returned an inhibition of 7%.
The molecule `O=C(N1CCN(c2ccccc2)CC1)C12CC3CC(CC(C3)C1)C2` yielded an IC50 in experiment [1] greater than 100 µM. In addition, the inhibition in experiment [2] amounted to 0%.
The molecule `Cc1ccc(C23CC4CC(CC(C(=O)N5CCN(c6ccccc6)CC5)(C4)C2)C3)cc1` displayed a concentration for half-maximal inhibition (IC50) in experiment [1] of 7.3 µM.
In experiment [1], `CCN1CCN(C(=O)C2=C(C)c3ccccc3C2)CC1` showed an IC50 of 15 µM. Also, in experiment [2], the inhibition worked out at 0%.
Consider `O=C(N1CCN(CCc2ccccc2)CC1)C12CC3CC(CC(C3)C1)C2`, for which the 50% inhibitory concentration (IC50) in experiment [1] was 47 µM. Besides, the inhibition in experiment [2] was 0%.
Turning to `CCN1CCN(C(=O)CC2CCCCC2)CC1`, in experiment [1], the half-maximal inhibitory concentration (IC50) is greater than 100 µM. In experiment [2], the inhibition was determined as 40%.
As for `CCN1CCN(C(=O)CCC2CCCCC2)CC1`, the IC50 in experiment [1] is 48 µM. The molecule also registered an inhibition in experiment [2] of 0%.
Turning to `CCN1CCN(C(=O)C2CCC(C(C)(C)C)CC2)CC1` (stereo not given), the IC50 in experiment [1] amounted to 20 µM; in experiment [3], 1.2 µM. The same molecule showed an inhibition in experiment [2] of 0%.
`COCCN1CCN(C(=O)C23CC4CC(C2)CC(c2ccc(C)cc2)(C4)C3)CC1` had a half-inhibitory concentration (IC50) in experiment [1] of 2.1 µM. This molecule also gave an inhibition in experiment [2] of 41%.
Consider `O=C(N1CCN(CCO)CC1)C12CC3CC(CC(C3)C1)C2`, for which the concentration for half-maximal inhibition (IC50) came to 1.47 µM in experiment [1] and 0.494 µM in experiment [3]. In experiment [2], this molecule displayed an inhibition of 31%.
As to `Cc1ccc(C23CC4CC(CC(C(=O)N5CCN(C)CC5)(C4)C2)C3)cc1`, the IC50 came to 0.08 µM in experiment [1] and 0.081 µM in experiment [3]. The molecule further gave an inhibition in experiment [2] of 0%. Further, the inhibition in vivo at 10 mg/kg in the experiment with Mus musculus [4] is 63%; in the experiment with Mus musculus [5], 54%; in the experiment with Mus musculus [6], 39%; in the experiment with Mus musculus [7] it was 0%.
For `O=C(N1CCc2ccccc2C1)C12CC3CC(CC(C3)C1)C2`, the IC50 in experiment [1] was 5.6 µM.
For the molecule `O=C(N1CCNCC1)C12CC3CC(CC(C3)C1)C2`, in experiment [1], the concentration for half-maximal inhibition (IC50) turned out to be 8.2 µM. Also, the inhibition in experiment [2] is 31%.
For the molecule `Cc1ccc(C23CC4CC(CC(C(=O)N5CCN(S(=O)(=O)c6ccccc6)CC5)(C4)C2)C3)cc1`, the midpoint of inhibition in experiment [1], the IC50, lay at 64 µM. Further, the inhibition in experiment [2] was determined as 48%.
Turning to `CCN1CCN(C(=O)C(C)(C)C)CC1`, the IC50 in experiment [1] was greater than 100 µM. In experiment [2], the inhibition was found to be 0%.
Molecule `CCN1CCN(C(=O)C23CC4CC(CC(O)(C4)C2)C3)CC1` had an IC50 in experiment [1] of 53 µM.
In experiment [1], `Cc1ccc(C23CC4CC(CC(C(=O)N5CCN(C(C#N)c6ccccc6)CC5)(C4)C2)C3)cc1` (stereo not given) registered an IC50 of 2.1 µM. Further, the inhibition in experiment [2] worked out at 48%.
Turning to `CC(C)C(C#N)N1CCN(C(=O)C23CC4CC(CC(C4)C2)C3)CC1` (stereo not given), the half-maximal inhibitory concentration (IC50) in experiment [1] was 20 µM. This molecule also registered an inhibition in experiment [2] of 45%.
As for `CCN1CCN(C(=O)CC23CC4CC(CC(C4)C2)C3)CC1`, the half-inhibitory concentration (IC50) in experiment [1] was 4.1 µM. This molecule also yielded an inhibition in experiment [2] of 1%.
In experiment [1], `O=C(N1CCN(S(=O)(=O)c2ccccc2)CC1)C12CC3CC(CC(C3)C1)C2` yielded an IC50 greater than 100 µM. The inhibition in experiment [2] is 35%.
With `CN1CCN(C(=O)C23CC4CC(CC(C4)C2)C3)CC1`, in experiment [1], the IC50 is 0.7 µM. In experiment [2], this molecule returned an inhibition of 13%.
Molecule `O=C(N1CCCCC1)C12CC3CC(CC(O)(C3)C1)C2` registered an IC50 in experiment [1] of 7.3 µM. The molecule also returned an inhibition in experiment [2] of 9%.
Turning to `CCN1CCN(C(=O)c2ccccc2)CC1`, the half-maximal inhibitory concentration (IC50) in experiment [1] is greater than 100 µM. The inhibition in experiment [2] stood at 0%.
Molecule `Cc1ccc(C23CC4CC(CC(C(=O)N5CCN(Cc6ccccc6)CC5)(C4)C2)C3)cc1` came in with a concentration for half-maximal inhibition (IC50) in experiment [1] of 1.5 µM. The molecule also displayed an inhibition in experiment [2] of 80%.
Molecule `CCN1CCN(C(=O)C23CC4CC(C2)CC(c2ccc(OC)cc2)(C4)C3)CC1` returned an IC50 in experiment [1] of 0.6 µM. The molecule also displayed an inhibition in experiment [2] of 51%.
Take `CCN1CCN(C(=O)C2CCCCC2)CC1`: the IC50 in experiment [1] amounted to 53 µM. In experiment [2], this molecule came in with an inhibition of 0%.
In experiment [1], `N#CC(c1ccccc1)N1CCN(C(=O)C23CC4CC(CC(C4)C2)C3)CC1` (stereo not given) displayed an IC50 of 24 µM. Besides, the inhibition in experiment [2] came out at 39%.
In experiment [1], `COCCN1CCN(C(=O)C23CC4CC(CC(C4)C2)C3)CC1` showed an IC50 of 12 µM. In addition, the inhibition in experiment [2] worked out at 7%.
